Test results from patent publication US7192746B2, “α-Isomaltosyltransferase, process for producing the same and use thereof” (Kabushiki Kaisha Hayashibara Seibutsu Kagaku Kenkyujo, priority 2000, dated 2007).

Key:
Type in all cases: biochemical
[1] = test system: α-isomaltosyl-transferring enzyme from Bacillus globisporus C9; experiment: Action on saccharides (substrates, TLC); parameters: key: −: there was found no substrate change before and after the enzymatic reaction; +: there were found both the reduction of substrate and the formation of cyclotetrasaccharide after the enzymatic reaction; conditions: 2 units/g substrate, 2% (w/v) substrate, 30° C., pH 6.0, 24 hours
Source text: (§1) To examine the saccharides in the supernatant, they were separated from the supernatant by silica gel thin-layer chromatography (abbreviated as “TLC” hereinafter) using, as a developer, a mixture solution of n-butanol, pyridine, and water (=6:4:1), and, as a thin-layer plate, “[…] 60”, an aluminum plate (20×20 cm) for TLC commercialized by […]. The coloration of both the separated total sugars by the sulfuric acid-methanol method and the reducing saccharides by the diphenylamine-aniline method detected a non-reducing saccharide at a position with an Rf value of about 0.31, which was positive on the former detection method but negative on the latter detection method.
(§2) It was tested whether saccharides can be used as substrates for the α-isomaltosyl-transferring enzyme. For the purpose, a solution of maltose, maltotriose, maltotetraose, maltopentaose, maltohexaose, maltoheptaose, isomaltose, isomaltotriose, panose, isomaltosylmaltose, isopanose, α,α-trehalose, kojibiose, nigerose, α,β-trehalose, cellobiose, gentibiose, maltitol, maltotriitol, lactose, sucrose, α-cyclodextrin, β-cyclodextrin, γ-cyclodextrin, soluble starch, pullulan, or dextran was prepared. To each of the above solutions was added two units/g substrate of a purified specimen of either α-isomaltosyl-transferring enzyme from Bacillus globisporus C9 obtained by the method in Experiment 4, Bacillus globisporus C11 obtained by the method in Experiment 7, Bacillus globisporus N75 obtained by the method in Experiment 11, or Arthrobacter ramosus S1 obtained by the method in Experiment 15, or a partially purified α-isomaltosyl-transferring enzyme from Arthrobacter globiformis A19 obtained by the method in Experiment 15. The resulting each solution was adjusted to give a substrate concentration of 2% (w/v) and incubated at 30° C. and pH 6.0 for 24 hours. The enzyme solutions before and after the enzymatic reactions were respectively analyzed on TLC as disclosed in Experiment 1 to confirm whether the enzymes acted on these substrates.

[2] = test system: α-isomaltosyl-transferring enzyme from Bacillus globisporus C11; experiment: Action on saccharides (substrates, TLC); parameters: key: −: there was found no substrate change before and after the enzymatic reaction; +: there were found both the reduction of substrate and the formation of cyclotetrasaccharide after the enzymatic reaction; conditions: 2 units/g substrate, 2% (w/v) substrate, 30° C., pH 6.0, 24 hours
Source text: as §1, §2

[3] = test system: α-isomaltosyl-transferring enzyme from Bacillus globisporus N75; experiment: Action on saccharides (substrates, TLC); parameters: key: −: there was found no substrate change before and after the enzymatic reaction; +: there were found both the reduction of substrate and the formation of cyclotetrasaccharide after the enzymatic reaction; conditions: 2 units/g substrate, 2% (w/v) substrate, 30° C., pH 6.0, 24 hours
Source text: as §1, §2

[4] = test system: α-isomaltosyl-transferring enzyme from Arthrobacter globiformis A19; experiment: Action on saccharides (substrates, TLC); parameters: key: −: there was found no substrate change before and after the enzymatic reaction; +: there were found both the reduction of substrate and the formation of cyclotetrasaccharide after the enzymatic reaction; conditions: partially purified enzyme, 2 units/g substrate, 2% (w/v) substrate, 30° C., pH 6.0, 24 hours
Source text: as §1, §2

[5] = test system: α-isomaltosyl-transferring enzyme from Arthrobacter ramosus S1; experiment: Action on saccharides (substrates, TLC); parameters: key: −: there was found no substrate change before and after the enzymatic reaction; +: there were found both the reduction of substrate and the formation of cyclotetrasaccharide after the enzymatic reaction; conditions: 2 units/g substrate, 2% (w/v) substrate, 30° C., pH 6.0, 24 hours
Source text: as §1, §2

[6] = test system: α-isomaltosyl-transferring enzyme from Bacillus globisporus C9; experiment: Specificity to transferring acceptor; parameters: key: −: no saccharide transferred product was formed; ±: a saccharide-transferred product formed in an amount of less than one percent to the total sugars; +: a saccharide-transferred product was formed in an amount of over one percent but below 10% to the total sugars; ++: a saccharide-transferred product was formed in an amount of over 10% to the total sugars; conditions: panose as saccharide donor, 10 units/g substrate, 3.2% (w/v), 30° C., pH 6.0, 24 hours
Method in brief: (§3)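 Each candidate acceptor was mixed with panose donor at equal concentration, then given 10 units/g substrate of enzyme (purified, or partially purified for strain A19) at 3.2% (w/v) total saccharide. Reactions ran 24 hours at 30° C., pH 6.0, and were scored for presence or absence of transfer product.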

[7] = test system: α-isomaltosyl-transferring enzyme from Bacillus globisporus C11; experiment: Specificity to transferring acceptor; parameters: key: −: no saccharide transferred product was formed; ±: a saccharide-transferred product formed in an amount of less than one percent to the total sugars; +: a saccharide-transferred product was formed in an amount of over one percent but below 10% to the total sugars; ++: a saccharide-transferred product was formed in an amount of over 10% to the total sugars; conditions: panose as saccharide donor, 10 units/g substrate, 3.2% (w/v), 30° C., pH 6.0, 24 hours
Method in brief: as §3

[8] = test system: α-isomaltosyl-transferring enzyme from Bacillus globisporus N75; experiment: Specificity to transferring acceptor; parameters: key: −: no saccharide transferred product was formed; ±: a saccharide-transferred product formed in an amount of less than one percent to the total sugars; +: a saccharide-transferred product was formed in an amount of over one percent but below 10% to the total sugars; ++: a saccharide-transferred product was formed in an amount of over 10% to the total sugars; conditions: panose as saccharide donor, 10 units/g substrate, 3.2% (w/v), 30° C., pH 6.0, 24 hours
Method in brief: as §3

[9] = test system: α-isomaltosyl-transferring enzyme from Arthrobacter globiformis A19; experiment: Specificity to transferring acceptor; parameters: key: −: no saccharide transferred product was formed; ±: a saccharide-transferred product formed in an amount of less than one percent to the total sugars; +: a saccharide-transferred product was formed in an amount of over one percent but below 10% to the total sugars; ++: a saccharide-transferred product was formed in an amount of over 10% to the total sugars; conditions: partially purified enzyme, panose as saccharide donor, 10 units/g substrate, 3.2% (w/v), 30° C., pH 6.0, 24 hours
Method in brief: as §3

[10] = test system: α-isomaltosyl-transferring enzyme from Arthrobacter ramosus S1; experiment: Specificity to transferring acceptor; parameters: key: −: no saccharide transferred product was formed; ±: a saccharide-transferred product formed in an amount of less than one percent to the total sugars; +: a saccharide-transferred product was formed in an amount of over one percent but below 10% to the total sugars; ++: a saccharide-transferred product was formed in an amount of over 10% to the total sugars; conditions: panose as saccharide donor, 10 units/g substrate, 3.2% (w/v), 30° C., pH 6.0, 24 hours
Method in brief: as §3

Enzymatic action for forming cyclotetrasaccharide, Enzyme of Strain C9 [1] | Enzymatic action for forming cyclotetrasaccharide, Enzyme of Strain C11 [2] | Enzymatic action for forming cyclotetrasaccharide, Enzyme of Strain N75 [3] | Enzymatic action for forming cyclotetrasaccharide, Enzyme of Strain A19 [4] | Enzymatic action for forming cyclotetrasaccharide, Enzyme of Strain S1 [5] | SMILES | Product of transferring reaction, Enzyme of Strain C9 [6] | Product of transferring reaction, Enzyme of Strain C11 [7] | Product of transferring reaction, Enzyme of Strain N75 [8] | Product of transferring reaction, Enzyme of Stain A19 [9] | Product of transferring reaction, Enzyme of Strain S1 [10]
− | − | − | − | − | OC[C@H]1O[C@H](O[C@H]2[C@H](O)[C@@H](CO)OC(O)[C@@H]2O)[C@H](O)[C@@H](O)[C@@H]1O (some centres unmarked) [Nigerose, nigerose] | + (a saccharide-transferred product was formed in an amount of over one percent but below 10% to the total sugars) | + (a saccharide-transferred product was formed in an amount of over one percent but below 10% to the total sugars) | + (a saccharide-transferred product was formed in an amount of over one percent but below 10% to the total sugars) | + (a saccharide-transferred product was formed in an amount of over one percent but below 10% to the total sugars) | + (a saccharide-transferred product was formed in an amount of over one percent but below 10% to the total sugars)
− | − | − | − | − | OC[C@@H](O)[C@@H](O[C@H]1O[C@H](CO)[C@@H](O[C@H]2O[C@H](CO)[C@@H](O)[C@H](O)[C@H]2O)[C@H](O)[C@H]1O)[C@H](O)[C@@H](O)CO [Maltotriitol, maltotriitol] | + (a saccharide-transferred product was formed in an amount of over one percent but below 10% to the total sugars) | + (a saccharide-transferred product was formed in an amount of over one percent but below 10% to the total sugars) | + (a saccharide-transferred product was formed in an amount of over one percent but below 10% to the total sugars) | + (a saccharide-transferred product was formed in an amount of over one percent but below 10% to the total sugars) | + (a saccharide-transferred product was formed in an amount of over one percent but below 10% to the total sugars)
− | − | − | − | − | OC[C@H]1O[C@@H]2O[C@H]3[C@H](O)[C@@H](O)[C@@H](O[C@H]4[C@H](O)[C@@H](O)[C@@H](O[C@H]5[C@H](O)[C@@H](O)[C@@H](O[C@H]6[C@H](O)[C@@H](O)[C@@H](O[C@H]7[C@H](O)[C@@H](O)[C@@H](O[C@H]1[C@H](O)[C@H]2O)O[C@@H]7CO)O[C@@H]6CO)O[C@@H]5CO)O[C@@H]4CO)O[C@@H]3CO [α-Cyclodextrin, α-cyclodextrin] | − | − | − | − | −

Continued, compound first:

SMILES | Enzymatic action for forming cyclotetrasaccharide, Enzyme of Strain C9 [1] | Enzymatic action for forming cyclotetrasaccharide, Enzyme of Strain C11 [2] | Enzymatic action for forming cyclotetrasaccharide, Enzyme of Strain N75 [3] | Enzymatic action for forming cyclotetrasaccharide, Enzyme of Strain A19 [4] | Enzymatic action for forming cyclotetrasaccharide, Enzyme of Strain S1 [5] | Product of transferring reaction, Enzyme of Strain C9 [6] | Product of transferring reaction, Enzyme of Strain C11 [7] | Product of transferring reaction, Enzyme of Strain N75 [8] | Product of transferring reaction, Enzyme of Stain A19 [9] | Product of transferring reaction, Enzyme of Strain S1 [10]
OC[C@H]1O[C@@](CO)(O[C@H]2O[C@H](CO)[C@@H](O)[C@H](O)[C@H]2O)[C@@H](O)[C@@H]1O [Sucrose, sucrose] | − | − | − | − | − | + (a saccharide-transferred product was formed in an amount of over one percent but below 10% to the total sugars) | + (a saccharide-transferred product was formed in an amount of over one percent but below 10% to the total sugars) | + (a saccharide-transferred product was formed in an amount of over one percent but below 10% to the total sugars) | + (a saccharide-transferred product was formed in an amount of over one percent but below 10% to the total sugars) | + (a saccharide-transferred product was formed in an amount of over one percent but below 10% to the total sugars)
OC[C@H]1O[C@H](OC[C@H]2OC(O)[C@H](O)[C@@H](O)[C@@H]2O)[C@H](O)[C@@H](O)[C@@H]1O (some centres unmarked) [Isomaltose, isomaltose] | − | − | − | − | − | ++ (a saccharide-transferred product was formed in an amount of over 10% to the total sugars) | ++ (a saccharide-transferred product was formed in an amount of over 10% to the total sugars) | ++ (a saccharide-transferred product was formed in an amount of over 10% to the total sugars) | ++ (a saccharide-transferred product was formed in an amount of over 10% to the total sugars) | ++ (a saccharide-transferred product was formed in an amount of over 10% to the total sugars)
